Test results published in PubChem BioAssay (NCI).
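The compound was tested at five concentrations on cells cultured in 96-well plates, with a 48-hour exposure period. GI50 = concentration required for 50% inhibition of growth. The concentration for full growth arrest is given as TGI.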

How the values were obtained:
Assay in all cases: NCI anticancer screen, dose series, 48 h
[1] = system: SK-OV-3 ovarian
[2] = system: KM12 colon
[3] = system: SW-620 colon
[4] = system: SN12C renal
[5] = system: UACC-257 melanoma
[6] = system: SNB-19 CNS
[7] = system: IGROV1 ovarian
[8] = system: SF-295 CNS
[9] = system: SF-268 CNS
[10] = system: 786-0 renal

Compound	TGI [1] [µM]	TGI [2] [µM]	TGI [3] [µM]	TGI [4] [µM]	TGI [5] [µM]	TGI [6] [µM]	TGI [7] [µM]	TGI [8] [µM]	TGI [9] [µM]	TGI [10] [µM]	GI50 [1] [µM]	GI50 [2] [µM]	GI50 [3] [µM]	GI50 [4] [µM]	GI50 [5] [µM]	GI50 [6] [µM]	GI50 [7] [µM]	GI50 [8] [µM]	GI50 [9] [µM]
CCOP(=O)(/C=C/n1cc(C)c(=O)[nH]c1=O)OCC	> 100	> 100	> 100	> 100	> 100	> 100	> 100	> 100	> 100	> 100	–	–	–	–	–	–	–	–	–
Nc1[nH]c(=O)nc2c1ncn2C1OC(CO)C(O)C1O (centres undefined)	> 100	> 100	> 100	> 100	> 100	> 100	> 100	> 100	> 100	> 100	–	–	–	–	–	–	–	–	–
COC1(CC[C@@H](C)COC2OC(CO)C(O)C(O)C2O)OC2C[C@H]3[C@@H]4CC[C@H]5C[C@@H](OC6OC(CO)C(OC7OC(CO)C(O)C(O)C7O)C(O)C6OC6OC(C)C(O)C(O)C6O)[C@H](O)C[C@]5(C)[C@H]4CC[C@]3(C)C2[C@@H]1C (some centres undefined)	3.28	5.02	4.66	3.42	3.5	3.55	3.19	3.28	3.99	4.04	–	–	–	–	–	–	–	–	–
CCC1(c2ccc(N3C(=O)c4cccc5cc([N+](=O)[O-])cc(c45)C3=O)cc2)CCC(=O)NC1=O (centres undefined)	39.5	> 100	> 100	24.8	> 100	> 74.3	38.6	41.4	51.8	21.6	–	–	–	–	–	–	–	–	–
O=c1[nH]c(=O)n(COC(CO)CO)cc1-c1ccccc1	> 100	> 100	> 100	> 100	> 100	> 100	> 100	> 100	> 100	> 100	–	–	–	–	–	–	–	–	–
O=S(=O)(Nc1nc2ccccc2nc1N1CCCCCC1)c1ccccc1	89.6	52	65.3	> 100	99.2	> 100	> 100	70	> 100	> 100	–	–	–	–	–	–	–	–	–
O=C(O)CSC(CC(=O)c1ccc(Cl)cc1)c1ccc(Cl)cc1 (centres undefined)	97.9	27.6	> 100	> 100	53.3	> 100	54.5	> 100	79	> 100	–	–	–	–	–	–	–	–	–
COc1ccc(N2C(=O)C3c4[nH]c5c(C)cccc5c4C4CCC(C(C)C)CC4C3C2=O)cc1 (centres undefined)	47.7	19.9	45.7	98	> 100	> 100	23.5	38.3	22	19.5	–	–	–	–	–	–	–	–	–
C/C(=N\Nc1nc2ccccc2s1)c1ccncn1	> 32.1	16.6	> 100	18	> 100	> 28.4	4.39	20.5	9.56	> 72.4	–	–	–	–	–	–	–	–	–
N[C@@H](CCC(=O)NC(Cc1ccccc1)C(=O)NCP(=O)(O)O)C(=O)O (some centres undefined)	–	> 100	> 100	> 100	> 100	> 100	> 100	> 100	–	> 100	–	–	–	–	–	–	–	–	–
CN(CCCCCl)P(=O)(OCc1ccc([N+](=O)[O-])o1)OCC1OC(n2ccc(N)nc2=O)C(O)C1O (centres undefined)	38.3	34.6	69.6	33.7	30.2	43.7	16.3	57.7	> 100	> 100	–	–	–	–	–	–	–	–	–
C[s+]1c2ccccc2c2ccccc21	–	> 100	> 100	> 100	–	> 100	> 100	> 100	> 100	> 100	–	–	–	–	–	–	–	–	–
NC(=O)CCC(N=c1c2ccccc2n(O)c2ccccc12)C(=O)O (centres undefined)	> 100	> 100	> 100	> 100	–	> 100	> 100	> 100	> 100	> 100	–	–	–	–	–	–	–	–	–
O=C1NC(O)c2cc3ccccc3cc2O1 (centres undefined)	> 100	> 100	> 100	> 100	> 100	> 100	> 100	> 100	> 100	> 100	–	–	–	–	–	–	–	–	–
CCOC(=O)NC(=S)N(CC(=O)c1cc(OC)c(OC)c(OC)c1)c1ccc(Cl)cc1	> 100	> 100	> 100	> 100	> 100	> 100	> 100	> 100	> 100	–	> 100	> 100	> 100	> 100	25.1	> 100	70.1	76.7	> 100
CC(O)c1nc(C#N)c(N)o1 (centres undefined)	> 100	> 100	> 100	> 100	> 100	> 100	> 100	> 100	> 100	> 100	–	–	–	–	–	–	–	–	–
NC(=O)[C@H](Cc1ccc(O)cc1)Nc1c(O)c2c(c(O)c1Cl)C(=O)C=CC2=O	> 10	> 6.81	2.82	> 6.94	> 10	> 10	4.66	> 10	> 10	4.62	–	–	–	–	–	–	–	–	–
Cc1nc2c(Br)cc(Br)cc2c(=O)n1-c1ccccc1NC1OC(CO)C(O)C(O)C1O (centres undefined)	> 100	> 100	> 100	> 100	> 100	> 100	> 100	> 100	> 100	> 100	–	–	–	–	–	–	–	–	–
CC(C)(C)C(=O)Nc1c(C=O)ccc2[nH]cnc12	> 100	> 100	> 100	> 100	> 100	> 100	> 100	> 100	> 100	> 100	–	–	–	–	–	–	–	–	–
O=CCCCCCOCc1ccccc1	> 100	> 100	> 100	32.6	> 100	> 100	> 100	> 60.4	> 100	68.1	–	–	–	–	–	–	–	–	–
Clc1ccc2c(NCCCCCCNc3ccnc4cc(Cl)ccc34)ccnc2c1	17.5	7.88	3.78	16.6	14.6	13.5	14.5	5.56	24.8	4.15	–	–	–	–	–	–	–	–	–

Compound	TGI [1] [µM]	TGI [2] [µM]	TGI [3] [µM]	TGI [4] [µM]	TGI [5] [µM]	TGI [6] [µM]	TGI [7] [µM]	TGI [8] [µM]	TGI [9] [µM]	TGI [10] [µM]	GI50 [1] [µM]	GI50 [2] [µM]	GI50 [3] [µM]	GI50 [4] [µM]	GI50 [5] [µM]	GI50 [6] [µM]	GI50 [7] [µM]	GI50 [8] [µM]	GI50 [9] [µM]
C[C@]12CC[C@H]3[C@@H](CC=C4C[C@@H](N5CCCC5)CC[C@@]43C)[C@@H]1C[C@H](N1CCCCC1)[C@@H]2O	> 100	> 100	> 100	> 100	83.8	> 100	> 100	> 100	> 100	> 100	–	–	–	–	–	–	–	–	–
O=[N+]([O-])c1ccc(-n2nc3ccc4nonc4c3n2)cc1	56.5	> 100	> 100	> 100	> 100	> 100	> 100	87.9	> 100	89.4	–	–	–	–	–	–	–	–	–
COc1cc(CCNC2=CC(=O)c3nc[nH]c3C2=O)ccc1O	90.2	82.2	58.6	> 100	34.8	33.3	52.8	96.4	> 100	> 100	–	–	–	–	–	–	–	–	–
CCOC(=O)c1c(-c2ccc(OC)cc2)ccn1C	> 10	> 10	> 10	> 10	> 10	> 10	> 10	> 10	> 10	> 10	–	–	–	–	–	–	–	–	–
COc1cc2c[n+]3c4c(c2c(OC)c1OC)CCCC4CC3 (centres undefined)	> 100	> 100	> 100	–	> 100	> 100	> 100	> 100	–	> 100	–	–	–	–	–	–	–	–	–
C=C(NC(=O)C(=C)NC(=O)c1ccc2c(n1)-c1coc(n1)C(=C)NC(=O)C(=C)NC(=O)c1nc(oc1C)C(=C)NC(=O)C(C(C)(C)O)NC(=O)C(=C)NC(=O)c1coc(n1)/C(=C/C)NC(=O)[C@H]([C@@H](C)O)NC(=O)c1csc-2n1)C(N)=O (some centres undefined)	–	> 87.5	> 87.5	> 87.5	> 87.5	> 87.5	> 87.5	> 87.5	> 87.5	> 87.5	–	–	–	–	–	–	–	–	–
CCN1CC2(C)CCC(OC)C34C5CC6CCC(O)(C5C(=O)O6)C(C(O)C23)C14 (centres undefined)	> 100	> 100	> 100	–	> 100	> 100	> 100	> 100	> 100	> 100	–	–	–	–	–	–	–	–	–
COc1ccc(-c2ccc(C(=O)C=P(c3ccccc3)(c3ccccc3)c3ccccc3)cc2)cc1	34.9	36.6	37.8	28.5	45.2	> 100	–	40.3	71.4	37.5	–	–	–	–	–	–	–	–	–
CCc1nc(N)c2nc(-c3cccs3)oc2n1	–	> 100	> 100	> 100	> 100	> 100	> 100	> 100	> 100	> 100	–	–	–	–	–	–	–	–	–
CCC1(O)CC(CCN(Cc2ccccc2)C(=O)OCc2ccccc2)C(OCc2ccccc2)C1O (centres undefined)	34.6	27.3	> 100	82	34.7	31.6	37.4	28.2	–	39.3	–	–	–	–	–	–	–	–	–
COC(=O)c1c2c(cc3c1CC1(Cc4cc5c(c(C=O)c4C1)CCC5)C3)CCC2 (centres undefined)	> 100	–	> 100	–	71.3	> 100	> 100	> 100	> 100	> 100	–	–	–	–	–	–	–	–	–
COC(=O)C1=C(CCCCO[Si](C)(C)C(C)(C)C)NC(=O)N2[C@H](CCOCc3ccccc3)CC[C@@H]12	> 100	> 100	–	> 100	> 100	> 100	–	> 100	> 100	> 100	–	–	–	–	–	–	–	–	–
COC(=O)[C@]1(c2cc3ccccc3n2S(=O)(=O)c2ccccc2)CC2CN(C(=O)OCc3ccccc3)C1C1OC(C)(C)OC21 (some centres undefined)	> 100	> 100	> 100	> 100	> 100	–	> 100	> 100	–	> 100	–	–	–	–	–	–	–	–	–
O=C(O)c1c(CC(Cc2ccc3c(c2)CCC3)C(=O)O)ccc2c1CCC2 (centres undefined)	–	> 100	> 100	> 100	> 100	> 100	> 100	> 100	–	> 100	–	–	–	–	–	–	–	–	–
CC1=C(C)C(=O)C(C2=CC(=O)c3ccccc3C2=O)=C(C2=CC(=O)c3ccccc3C2=O)C1=O	45.8	28.9	> 33.9	–	28.6	> 36.5	29.8	> 55.2	> 55.1	> 58.1	–	–	–	–	–	–	–	–	–
CC1OC(OC2C(O[C@H]3CC[C@@]4(C)C(=CC[C@H]5[C@@H]6C[C@@H]7O[C@]8(CC[C@@H](C)CO8)[C@@H](C)[C@@H]7[C@@]6(C)CC[C@@H]54)C3)OC(CO)C(O)C2OC2OC(CO)C(O)C(O)C2O)C(O)C(O)C1O (some centres undefined)	3.19	4.49	4.39	–	3.65	3.46	3.3	4.41	3.7	2.97	–	–	–	–	–	–	–	–	–
CCOC(=O)c1c(N)sc2c1C(C(=O)OCC)CCCC2 (centres undefined)	–	> 100	> 100	> 100	> 100	> 100	> 100	–	–	> 100	–	–	–	–	–	–	–	–	–
O=C(Nc1ccccc1)N1CCN(C(=O)Nc2ccccc2)C1=S	76.3	> 100	> 100	> 100	> 100	–	> 100	58.4	47.8	> 100	–	–	–	–	–	–	–	–	–
O=P1(N(CCCl)CCCl)Oc2ccc(Cl)cc2C(C(Cl)(Cl)Cl)c2cc(Cl)ccc2O1 (centres undefined)	> 100	33.4	> 100	57.6	> 100	–	–	23.7	> 100	30.7	–	–	–	–	–	–	–	–	–
O=C1c2cc3c(cc2-c2c1c1cc(F)c(F)cc1c(=O)n2CCCn1ccnc1)OCO3	–	14.7	> 100	–	0.65	> 100	> 100	0.0133	> 100	–	–	0.0469	< 0.01	–	0.0969	< 0.01	0.14	< 0.01	< 0.01
